What was measured:
human ACC1 = target: T1, human ACC1 (Homo sapiens, UniProt Q13085); test: Measurement of ACC1 inhibitory activity (Malonyl-CoA production, RapidFire-mass spectrometry); format: biochemical; details: 10 μM of the test compound, recombinant human ACC1; for inhibition at 10 µM: read-out: ACC1 inhibitory rate (%) at 10 μM
T1 construct: His tag (from vector pFAST-BacHTc; protein captured on Ni-NTA) (N); made in house; host or cells: SF-9 insect cells, recombinant baculovirus BAC-ACC1
Method: (1) Cloning of Human ACC1 Gene and Preparation of Recombinant Baculovirus
Human ACC1 gene was cloned by PCR using a human liver cDNA library (Clontech) as a template and Primer 1 and Primer 2 shown below. Primer 1 and Primer 2 were prepared by adding SalI, NotI restriction enzyme recognition sequences based on the information of the base sequence of human ACC1 gene (Genbank Accession U19822).
PCR was performed using Pyrobest DNA polymerase (TAKARA BIO INC.). The obtained PCR product was cloned to pT7 Blue vector (Novagen) and after confirmation of the base sequence, digested with restriction enzymes SalI and XbaI. The obtained DNA fragment was inserted into pFAST-BacHTc (Invitrogen) digested with restriction enzymes SalI and XbaI to give expression plasmid ACC1/pFAST-BacHTc.
Using the expression plasmid ACC1/pFAST-BacHTc and BAC-TO-BAC Baculovirus Expression System (Invitrogen), virus stock BAC-ACC1 of recombinant Baculovirus was prepared.
(2) Preparation of ACC1 Protein
SF-9 cells (Invitrogen) were inoculated to a medium (10 L) for insect cells (Sf-900IISFM medium (Invitrogen) containing 5% fetal bovine serum (Trace), 50 mg/L Gentamicin (Wako Pure Chemical Industries, Ltd.), 0.1% Pluronic F-68 (Invitrogen)) at 1.0×10^6 cells/mL, and cultured with shaking in Wave Bioreactor (GE Healthcare) at 27° C., 20 rpm, rocking angle 10°, oxygen concentration 30%.
On day 2 of the culture, recombinant Baculovirus BAC-ACC1 was added, and the cells were cultured for 3 days. The culture medium was centrifuged at 4000×g for 10 min to give virus-infected cells. The cells were washed with phosphate buffered saline (Invitrogen) and centrifuged under the same conditions. The obtained cells were cryopreserved at −80° C.
The cryopreserved cells were thawed in ice and suspended in 800 mL of 25 mM HEPES buffer (pH 7.5) containing 10% Glycerol, 0.3 M NaCl, 1 mM EDTA, 25 mM Sodium β-Glycerophosphate and 1 mM Sodium Orthovanadate, and supplemented with Complete Protease Inhibitor (Roche). The obtained suspension was homogenized two times in a polytron homogenizer (Kinematica) at 20,000 rpm for 20 sec. The obtained cell disruption solution was clarified by centrifugation at 186,000×g for 60 min and the supernatant was passed through Ni-NTA Superflow Cartridges (5 mL) (QUIAGEN). Furthermore, it was washed with 25 mM HEPES buffer (pH 7.5) containing 20 mM Imidazole, 0.3 M NaCl, and eluted with 25 mM HEPES buffer (pH 7.5) containing 250 mM Imidazol, 0.3 M NaCl. The eluate was concentrated by Amicon Ultra-15 (Nihon Millipore K.K.) having a fraction molecular weight of 50K. The obtained concentrate was subjected to gel filtration with 50 mM HEPES buffer (pH 7.5) containing 10 mM MgCl2, 2 mM dithiothreitol, 10 mM tripotassium citrate, 0.3 M NaCl by using HiLoad 26/60 Superdex200 prep grade gel filtration column (GE Healthcare) to give ACC1. The obtained ACC1 was cryopreserved at −80° C.
(3) Measurement of ACC1 Inhibitory Activity
ACC1 obtained in the above-mentioned (2) was diluted with an enzyme reaction buffer (50 mM HEPES (pH 7.5), 10 mM MgCl2, 10 mM Tripottasium Citrate, 2 mM Dithiothreitol, 0.001% Fatty acid free BSA) to a concentration of 0.2 μg/ml, and the mixture was added to each well of a 384 well assay plate by 10 μl. A test compound dissolved in dimethyl sulfoxide (DMSO) was diluted with an enzyme reaction buffer and the resulting solution (5 μl) was added to each well. The mixture was incubated at room temperature for 60 min. Then, a substrate solution (50 mM KHCO3, 200 μM ATP, 200 μM Acetyl-CoA, 5 μl) was added to each well, and the mixture was reacted at room temperature for 30 min. The reaction was quenched by adding a reaction quenching liquid (1.3% formic acid, 0.2 μM Malonyl-^13C3-CoA) by 60 μL each to the obtained reaction mixtures (test compound addition group).
In addition, a reaction was performed in the same manner as above and without adding the test compound (test compound non-addition group). […]

HCT116 cells = test: Growth inhibitory activity on HCT116 cell (CellTiter-Glo); format: cell-based; details: table head: 10 μM (text b2498: 1 μM), 3 days incubation; for inhibition at 10 µM: Homo sapiens, HCT-116, 72 h, read-out: HCT116 cell proliferation inhibitory rate (%) at 10 μM
Method: The growth inhibitory activity of the compound on HCT116 cell was evaluated by the following method.
HCT116 cells were seeded in a 384 well blackplate at 900 cells/30 μL/well, and maintained in an RPMI medium (Wako)) containing an assay medium (2% fetal bovine serum, 50 Unit/mL penicillin, 50 μg/mL streptomycin (Invitrogen). The next day, a test compound dissolved in dimethyl sulfoxide (DMSO) was diluted with the assay medium, and the obtained compound solution was added by 10 μL to each well of a plate containing HCT116 cells and incubated at 37° C., 5% CO2 (test compound addition group).
A similar reaction was performed without adding a test compound (test compound non-addition group).
Furthermore, a similar reaction was performed under the conditions without adding HCT116 cell and a test compound (control group).
After 3 days, 20 μL of a CellTiter-Glo reagent (Promega KK) was added to the well, and the mixture was stirred for 10 min. Thereafter, the luminescence value of each well was measured by the EnVision™ multilabel counter (Perkin Elmer Inc.).
The HCT116 cell proliferation inhibitory rate (%) of the test compound was determined by the following calculation formula. (1−(luminescence of test compound addition group−luminescence of control group)÷(luminescence of test compound nonaddition group−luminescence of control group))×100

Row | Compound | inhibition at 10 µM (human ACC1) | inhibition at 10 µM (HCT116 cells) | ACC1 inhibitory rate (%) at 10 μM (human ACC1; 10 µM) | HCT116 cell proliferation inhibitory rate (%) at 10 μM (HCT116 cells)
1 | CC(=O)NC(C)c1ccc2cc(-c3ccc(Oc4cccc(OC[C@@H]5CC5(F)F)c4)nc3)oc2c1 (stereo partly drawn) [Example 68, N-(1-(2-(6-(3-(((1S)-2,2-difluorocyclopropyl)methoxy)phenoxy)pyridin-3-yl)-1-benzofuran-6-yl)ethyl)acetamide] | 100% | 39% | – | –
2 | CC(=O)NC(C)c1ccc2oc(-c3ccc(Oc4cccc(OCC5CC5)c4)nc3)nc2c1 (centres unmarked) [Example 71, N-(1-(2-(6-(3-(cyclopropylmethoxy)phenoxy)pyridin-3-yl)-1,3-benzoxazol-5-yl)ethyl)acetamide] | 95% | 41% | – | –
3 | CC(=O)NC(C)c1ccc2sc(-c3ccc(Oc4cccc(OCC5CC5)c4)cc3)cc2c1 (centres unmarked) [Example 73, N-(1-(2-(4-(3-(cyclopropylmethoxy)phenoxy)phenyl)-1-benzothiophen-5-yl)ethyl)acetamide] | 90% | 28% | – | –
4 | CC(=O)NC(C)c1ccc2sc(-c3ccc(Oc4cccc(OCC5CC5)c4)nc3)nc2c1 (centres unmarked) [Example 75, N-(1-(2-(6-(3-(cyclopropylmethoxy)phenoxy)pyridin-3-yl)-1,3-benzothiazol-5-yl)ethyl)acetamide] | 94% | 40% | – | –
5 | CC(=O)NC(C)c1ccc2nc(-c3ccc(Oc4cccc(OC[C@@H]5CC5(F)F)c4)cn3)oc2c1 (stereo partly drawn) [Example 76, N-(1-(2-(5-(3-(((1S)-2,2-difluorocyclopropyl)methoxy)phenoxy)pyridin-2-yl)-1,3-benzoxazol-6-yl)ethyl)acetamide] | 99% | 45% | – | –
6 | CC(=O)NC(C)c1ccc2nc(-c3ccc(Oc4cccc(OC[C@@H]5CC5(F)F)c4)nc3)oc2c1 (stereo partly drawn) [Example 80, N-(1-(2-(6-(3-(((1S)-2,2-difluorocyclopropyl)methoxy)phenoxy)pyridin-3-yl)-1,3-benzoxazol-6-yl)ethyl)acetamide] | 100% | 33% | – | –
7 | CC(=O)NC(C)c1ccc2nc(-c3ccc(Oc4cc(OCC5CC5)ccn4)cc3)oc2c1 (centres unmarked) [Example 82, N-(1-(2-(4-((4-(cyclopropylmethoxy)pyridin-2-yl)oxy)phenyl)-1,3-benzoxazol-6-yl)ethyl)acetamide] | 98% | 40% | – | –
8 | CC(=O)NC(C)c1ccc2cc(-c3ccc(Oc4cccc(OCC5CC5)c4)cc3)nn2c1 (centres unmarked) [Example 86, N-(1-(2-(4-(3-(cyclopropylmethoxy)phenoxy)phenyl)pyrazolo[1,5-a]pyridin-6-yl)ethyl)acetamide] | 95% | 34% | – | –
9 | CC(=O)NC(C)c1ccc2nc(-c3ccc(Oc4cccc(OCC5CC5)c4)cc3)oc2c1F (centres unmarked) [Example 90, N-(1-(2-(4-(3-(cyclopropylmethoxy)phenoxy)phenyl)-7-fluoro-1,3-benzoxazol-6-yl)ethyl)acetamide] | 101% | 22% | – | –
10 | CC(=O)NC(C)C1CCc2nc(-c3ccc(Oc4cccc(OCC5CC5)c4)cc3)oc2C1 (centres unmarked) [Example 95, N-(1-(2-(4-(3-(cyclopropylmethoxy)phenoxy)phenyl)-4,5,6,7-tetrahydro-1,3-benzoxazol-6-yl)ethyl)acetamide] | 97% | 11% | – | –
11 | CC(=O)NC(C)C1CCc2nc(-c3ccc(Oc4cccc(OCC5CC5)c4)cc3)oc2C1 (centres unmarked) [Example 95b, N-(1-(2-(4-(3-(cyclopropylmethoxy)phenoxy)phenyl)-4,5,6,7-tetrahydro-1,3-benzoxazol-6-yl)ethyl)acetamide] | – | – | 96% | 20%
12 | CC(=O)NC(C)c1ccc2nc(-c3ccc(Oc4cccc(OCC5CC5)c4)nn3)oc2c1 (centres unmarked) [Example 96, N-(1-(2-(6-(3-(cyclopropylmethoxy)phenoxy)pyridazin-3-yl)-1,3-benzoxazol-6-yl)ethyl)acetamide] | 100% | 23% | – | –
13 | CC(=O)NC(C)c1ccc2nc(-c3cnc(Oc4cccc(OCC5CC5)c4)cc3C)oc2c1 (centres unmarked) [Example 97, N-(1-(2-(6-(3-(cyclopropylmethoxy)phenoxy)-4-methylpyridin-3-yl)-1,3-benzoxazol-6-yl)ethyl)acetamide] | 92% | 22% | – | –
14 | C[C@H](NC(N)=O)c1ccc2nc(-c3ccc(Oc4cccc(OCC5CC5)c4)nc3)oc2c1 [Example 98b, 1-((1S)-1-(2-(6-(3-(cyclopropylmethoxy)phenoxy)pyridin-3-yl)-1,3-benzoxazol-6-yl)ethyl)urea] | 98% | 47% | – | –
15 | COC(=O)NC(C)c1ccc2nc(-c3ccc(Oc4cccc(OCC5CC5)c4)nc3)oc2c1 (centres unmarked) [Example 99, methyl (1-(2-(6-(3-(cyclopropylmethoxy)phenoxy)pyridin-3-yl)-1,3-benzoxazol-6-yl)ethyl)carbamate] | 98% | 26% | – | –
16 | CNC(=O)NC(C)c1ccc2nc(-c3ccc(Oc4cccc(OCC5CC5)c4)nc3)oc2c1 (centres unmarked) [Example 100, 1-(1-(2-(6-(3-(cyclopropylmethoxy)phenoxy)pyridin-3-yl)-1,3-benzoxazol-6-yl)ethyl)-3-methylurea] | 94% | 28% | – | –
17 | CC(NC(=O)N(C)C)c1ccc2nc(-c3ccc(Oc4cccc(OCC5CC5)c4)nc3)oc2c1 (centres unmarked) [Example 101, 3-(1-(2-(6-(3-(cyclopropylmethoxy)phenoxy)pyridin-3-yl)-1,3-benzoxazol-6-yl)ethyl)-1,1-dimethylurea] | 96% | 30% | – | –
18 | CCCn1cc(Oc2ccc(-c3nc4ccc(C(C)NC(C)=O)cc4o3)cn2)ccc1=O (centres unmarked) [Example 102, N-(1-(2-(6-((6-oxo-1-propyl-1,6-dihydropyridin-3-yl)oxy)pyridin-3-yl)-1,3-benzoxazol-6-yl)ethyl)acetamide] | 94% | 30% | – | –
19 | CC(=O)NC(C)c1cc2cc(-c3cnc(Oc4cccc(OCC5CC5)c4)cn3)ccc2o1 (centres unmarked) [Example 103, N-(1-(5-(5-(3-(cyclopropylmethoxy)phenoxy)pyrazin-2-yl)-1-benzofuran-2-yl)ethyl)acetamide] | 100% | 29% | – | –
